Our source for the IC50 and Activity values is ChEMBL document CHEMBL3872219, “Computational and synthetic approaches for developing Lavendustin B derivatives as allosteric inhibitors of HIV-1 integrase” (Eur J Med Chem, 2016).

Series [1] can be described thus: Inhibition of HIV1 His-tagged integrase/His-tagged LEDGF/p75 (unknown origin) interaction expressed in Escherichia coli BL21(DE3) preincubated for 30 mins with viral integrase followed by LEDGF/p75 addition measured after 30 mins by HTRF assay.
Series [2] can be described thus: Inhibition of FLAG or His-tagged HIV1 integrase 3' processing activity expressed in Escherichia coli BL21(DE3) using [32P]-labeled blunt ended 21-mer or recessed ended 19-mer double stranded U5 DNA as substrate preincubated for 30 mins followed by substrate addition measured after 1 hr by polyacrylamide gel electrophoresis. Set-up: species or system Human immunodeficiency virus 1.

A short description of series [3]: Inhibition of His-tagged LEDGF/p75 (unknown origin) dependent FLAG or His-tagged HIV1 integrase activity expressed in Escherichia coli BL21(DE3) using 32-mer blunt-ended U5 viral donor DNA and pBR322 target DNA preincubated for 5 mins followed by LEDGF/p75 addition measured after 90 mins by agarose gel electrophoresis.
Series [4] can be described thus: Cytotoxicity against HEK293T cells assessed as reduction in cell viability. The series is classed as toxicity, cell-based. Particulars: human, hek-293t.
Series [5] has as its system Human immunodeficiency virus 1. Description: Antiviral activity against VSV-g pseudotyped HIV1 infected in HEK293T cells incubated for 2 hrs prior to viral infection followed by compound wash out at 2 hrs post infection and subsequent compound readdition measured after 48 hrs by luciferase reporter gene assay. In kind it is functional, cell-based. The conditions noted are these: HEK-293T. (In general: Reporter assays use an easily measured gene product as a stand-in for the process of interest.)

Activity calls are given as the source filed them. The rule behind the calls is not given here.

One may read the IC50 as the concentration that inhibits the measured activity by half.

For the compound `O=C(O)c1cc(N(Cc2cccc(F)c2)Cc2cccc(F)c2)ccc1O`, the IC50 is 20.8 µM in series [1], 68.6 µM in series [2] and 18.5 µM in series [3].
On to `O=C(O)c1cc(N(Cc2ccccc2)Cc2ccccc2)ccc1O`, for which the 50% inhibitory concentration (IC50) in series [1] came to 8.75 µM; in series [2] it was 70 µM; in series [3], 7.93 µM.
Taken in the same sequence, the figures for `Cc1ccccc1CN(Cc1ccccc1C)c1ccc(O)c(C(=O)O)c1` were 27.6 µM, > 70 µM and 14.7 µM.
In the same order, the values of `O=C(O)c1cc(N(Cc2cccc(Cl)c2)Cc2cccc(Cl)c2)ccc1O` are 19.5 µM, > 70 µM and 13.5 µM.
Take `O=C(O)c1cc(N(Cc2ccccc2Cl)Cc2ccccc2Cl)ccc1O`: the figures for the IC50 in series [1], in series [2] and in series [3] were 3.28 µM, 25.6 µM and 3.78 µM, respectively. The Activity result in series [4] is recorded as “Toxic”. Moreover, the result in series [5] was Active.
As to `O=C(O)c1cc(N(Cc2ccccc2F)Cc2ccccc2F)ccc1O`, the figures for the 50% inhibitory concentration (IC50) in series [1], in series [2] and in series [3] were 17.8 µM, 63.1 µM and 9 µM, respectively.
